Results as given in ChEMBL document CHEMBL1201862, “PubChem BioAssay data set” (2004).
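These data come from cells grown in 96-well plates and exposed to compound for 48 hours at five concentrations. GI50 = concentration required for 50% inhibition of growth.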 Active and inactive are the calls of the source. No stated cut-off is given here; in the data, active = GI50 up to about 1.1 µM and inactive = higher.

What was measured:
Assay in all cases: growth of human tumour cells (NCI), 48 h
HOP-62 = tested on: HOP-62
MOLT-4 = tested on: MOLT-4
LOX IMVI = tested on: LOX IMVI
OVCAR-5 = tested on: OVCAR-5
SK-OV-3 = tested on: SK-OV-3
OVCAR-3 = tested on: OVCAR-3
UO-31 = tested on: UO-31
U-251 = tested on: U-251
SN12C = tested on: SN12C
DLD-1 = tested on: DLD-1
A498 = tested on: A498
NCI-H23 = tested on: NCI-H23
RPMI-8226 = tested on: RPMI-8226
RXF 631 = tested on: RXF 631
IGROV-1 = tested on: IGROV-1
NCI-H522 = tested on: NCI-H522
SNB-78 = tested on: SNB-78
M19-MEL = tested on: M19-MEL
NCI-H226 = tested on: NCI-H226
NCI-H460 = tested on: NCI-H460
SF-539 = tested on: SF-539
COLO 205 = tested on: COLO 205
UACC-257 = tested on: UACC-257
HCC 2998 = tested on: HCC 2998
K562 = tested on: K562
SK-MEL-2 = tested on: SK-MEL-2
CAKI-1 = tested on: CAKI-1
OVCAR-8 = tested on: OVCAR-8
HCT-116 = tested on: HCT-116
SF-295 = tested on: SF-295
SW-620 = tested on: SW-620
SK-MEL-5 = tested on: SK-MEL-5
DMS-273 = tested on: DMS-273
M14 = tested on: M14
SR = tested on: SR
UACC-62 = tested on: UACC-62
Malme-3M = tested on: Malme-3M
HL-60 = tested on: HL-60
EKVX = tested on: EKVX
OVCAR-4 = tested on: OVCAR-4
HCT-15 = tested on: HCT-15
786-0 = tested on: 786-0
KM-20L2 = tested on: KM-20L2
KM12 = tested on: KM12
SNB-19 = tested on: SNB-19
HT-29 = tested on: HT-29
SF-268 = tested on: SF-268
ACHN = tested on: ACHN
A549 = tested on: A549
LXFL 529 = tested on: LXFL 529
TK-10 = tested on: TK-10
CCRF-CEM = tested on: CCRF-CEM
SK-MEL-28 = tested on: SK-MEL-28
DMS-114 = tested on: DMS-114
SNB-75 = tested on: SNB-75
HOP-92 = tested on: HOP-92
RXF 393 = tested on: RXF 393
HOP-18 = tested on: HOP-18
XF498 = tested on: XF498

COC(=O)[C@]1(C)CCC[C@@]2(C)C1CCC1=C[C@@]3(C(C)C)CC[C@]12OO3 (some centres not stated) was tested, and the GI50 (HOP-62) was 36.9 µM (inactive), the GI50 (MOLT-4) was 25.8 µM (inactive) and the GI50 (LOX IMVI) was 24.7 µM (inactive). The GI50 (OVCAR-5) was 22.4 µM (inactive), the GI50 (SK-OV-3) was 60 µM (inactive) and the GI50 (OVCAR-3) was 27.8 µM (inactive). The GI50 (UO-31) was 18.5 µM (inactive), the GI50 (U-251) was 41.8 µM (inactive) and the GI50 (SN12C) was 31.3 µM (inactive). The GI50 (DLD-1) was 24.2 µM (inactive), the GI50 (A498) was 20.4 µM (inactive) and the GI50 (NCI-H23) was 34.1 µM (inactive). The GI50 (RPMI-8226) was 18.2 µM (inactive), the GI50 (RXF 631) was 22.6 µM (inactive) and the GI50 (IGROV-1) was 33.2 µM (inactive). The GI50 (NCI-H522) was 17.8 µM (inactive), the GI50 (SNB-78) was 54.3 µM (inactive) and the GI50 (M19-MEL) was 25.1 µM (inactive). The GI50 (NCI-H226) was 26.3 µM (inactive), the GI50 (NCI-H460) was 21.1 µM (inactive) and the GI50 (SF-539) was 22.3 µM (inactive). The GI50 (COLO 205) was 22.5 µM (inactive), the GI50 (UACC-257) was 26.2 µM (inactive) and the GI50 (HCC 2998) was 31.3 µM (inactive). For the same molecule, the GI50 (K562) was 25.9 µM (inactive), the GI50 (SK-MEL-2) was 36.5 µM (inactive) and the GI50 (CAKI-1) was > 10 µM (inactive). The GI50 (OVCAR-8) was 35.8 µM (inactive), the GI50 (HCT-116) was 25.2 µM (inactive) and the GI50 (SF-295) was 25.8 µM (inactive). The GI50 (SW-620) was 36.1 µM (inactive), the GI50 (SK-MEL-5) was 15.7 µM (inactive) and the GI50 (DMS-273) was 25.7 µM (inactive). The GI50 (M14) was 22 µM (inactive), the GI50 (SR) was 19.4 µM (inactive) and the GI50 (UACC-62) was 25.3 µM (inactive). For the same molecule, the GI50 (Malme-3M) was 42 µM (inactive), the GI50 (HL-60) was 19.1 µM (inactive) and the GI50 (EKVX) was 36.6 µM (inactive). The GI50 (OVCAR-4) was 42.3 µM (inactive), the GI50 (HCT-15) was 31.9 µM and the GI50 (786-0) was 20.4 µM (inactive). For the same molecule, the GI50 (KM-20L2) was > 10 µM (inactive), the GI50 (KM12) was 24.6 µM (inactive) and the GI50 (SNB-19) was 58.2 µM (inactive). The GI50 (HT-29) was 15.2 µM (inactive), the GI50 (SF-268) was 24.7 µM (inactive) and the GI50 (ACHN) was 36.4 µM (inactive). For the same molecule, the GI50 (A549) was 30.6 µM (inactive), the GI50 (LXFL 529) was 23.2 µM (inactive) and the GI50 (TK-10) was > 100 µM (inactive). For the same molecule, the GI50 (CCRF-CEM) was 17.9 µM (inactive).

In the case of COc1ccc(CCn2cncn2)cc1, the GI50 (HOP-62) was > 100 µM (inactive), the GI50 (MOLT-4) was > 100 µM (inactive) and the GI50 (OVCAR-5) was > 100 µM (inactive). The GI50 (SK-MEL-28) was > 100 µM (inactive), the GI50 (SK-OV-3) was > 100 µM (inactive) and the GI50 (OVCAR-3) was > 100 µM (inactive). The GI50 (UO-31) was > 100 µM (inactive), the GI50 (U-251) was > 100 µM (inactive) and the GI50 (SN12C) was > 100 µM (inactive). For the same molecule, the GI50 (DLD-1) was > 100 µM (inactive), the GI50 (NCI-H23) was > 100 µM (inactive) and the GI50 (RXF 631) was > 100 µM (inactive). The GI50 (IGROV-1) was > 100 µM (inactive), the GI50 (NCI-H522) was > 100 µM (inactive) and the GI50 (SNB-78) was > 100 µM (inactive). For the same molecule, the GI50 (M19-MEL) was > 100 µM (inactive), the GI50 (NCI-H226) was > 100 µM (inactive) and the GI50 (NCI-H460) was > 100 µM (inactive). For the same molecule, the GI50 (SF-539) was > 100 µM (inactive), the GI50 (COLO 205) was > 100 µM (inactive) and the GI50 (UACC-257) was > 100 µM (inactive). The GI50 (HCC 2998) was > 100 µM (inactive), the GI50 (K562) was > 100 µM (inactive) and the GI50 (DMS-114) was > 100 µM (inactive). For the same molecule, the GI50 (HCT-116) was > 100 µM (inactive), the GI50 (SF-295) was > 100 µM (inactive) and the GI50 (SNB-75) was > 100 µM (inactive). For the same molecule, the GI50 (SW-620) was > 100 µM (inactive), the GI50 (SK-MEL-5) was > 100 µM (inactive) and the GI50 (DMS-273) was > 100 µM (inactive). The GI50 (M14) was > 100 µM (inactive), the GI50 (SR) was > 100 µM (inactive) and the GI50 (UACC-62) was > 100 µM (inactive). For the same molecule, the GI50 (HL-60) was > 100 µM (inactive), the GI50 (EKVX) was > 100 µM (inactive) and the GI50 (OVCAR-4) was > 100 µM (inactive). The GI50 (HCT-15) was over 100 µM, the GI50 (KM-20L2) was > 100 µM (inactive) and the GI50 (KM12) was > 100 µM (inactive). The GI50 (SNB-19) was > 100 µM (inactive), the GI50 (HT-29) was > 100 µM (inactive) and the GI50 (SF-268) was > 100 µM (inactive). The GI50 (ACHN) was > 100 µM (inactive), the GI50 (A549) was > 100 µM (inactive) and the GI50 (HOP-92) was > 100 µM (inactive). The GI50 (LXFL 529) was > 100 µM (inactive), the GI50 (TK-10) was > 100 µM (inactive) and the GI50 (CCRF-CEM) was > 100 µM (inactive).

In the case of NC(=O)C(N)=O, the GI50 (HOP-62) was > 100 µM (inactive), the GI50 (MOLT-4) was > 100 µM (inactive) and the GI50 (LOX IMVI) was > 100 µM (inactive). For the same molecule, the GI50 (OVCAR-5) was > 100 µM (inactive), the GI50 (SK-MEL-28) was > 100 µM (inactive) and the GI50 (SK-OV-3) was > 100 µM (inactive). For the same molecule, the GI50 (OVCAR-3) was > 100 µM (inactive), the GI50 (UO-31) was > 100 µM (inactive) and the GI50 (U-251) was > 100 µM (inactive). For the same molecule, the GI50 (SN12C) was > 100 µM (inactive), the GI50 (DLD-1) was > 100 µM (inactive) and the GI50 (A498) was > 100 µM (inactive). For the same molecule, the GI50 (NCI-H23) was > 100 µM (inactive), the GI50 (RPMI-8226) was > 100 µM (inactive) and the GI50 (NCI-H522) was > 100 µM (inactive). The GI50 (SNB-78) was > 100 µM (inactive), the GI50 (M19-MEL) was > 100 µM (inactive) and the GI50 (NCI-H460) was > 100 µM (inactive). For the same molecule, the GI50 (SF-539) was > 100 µM (inactive), the GI50 (COLO 205) was > 100 µM (inactive) and the GI50 (UACC-257) was > 100 µM (inactive). The GI50 (HCC 2998) was > 100 µM (inactive), the GI50 (K562) was > 100 µM (inactive) and the GI50 (SK-MEL-2) was > 100 µM (inactive). For the same molecule, the GI50 (DMS-114) was > 100 µM (inactive), the GI50 (OVCAR-8) was > 100 µM (inactive) and the GI50 (HCT-116) was > 100 µM (inactive). The GI50 (SF-295) was > 100 µM (inactive), the GI50 (SW-620) was > 100 µM (inactive) and the GI50 (SK-MEL-5) was > 100 µM (inactive). The GI50 (DMS-273) was > 100 µM (inactive), the GI50 (M14) was > 100 µM (inactive) and the GI50 (SR) was > 100 µM (inactive). The GI50 (UACC-62) was > 100 µM (inactive), the GI50 (Malme-3M) was > 100 µM (inactive) and the GI50 (HL-60) was > 100 µM (inactive). For the same molecule, the GI50 (EKVX) was > 100 µM (inactive), the GI50 (RXF 393) was > 100 µM (inactive) and the GI50 (HCT-15) was over 100 µM. For the same molecule, the GI50 (786-0) was > 100 µM (inactive), the GI50 (KM-20L2) was > 100 µM (inactive) and the GI50 (KM12) was > 100 µM (inactive). For the same molecule, the GI50 (SNB-19) was > 100 µM (inactive), the GI50 (SF-268) was > 100 µM (inactive) and the GI50 (HOP-18) was > 100 µM (inactive). For the same molecule, the GI50 (ACHN) was > 100 µM (inactive), the GI50 (A549) was > 100 µM (inactive) and the GI50 (HOP-92) was > 100 µM (inactive). For the same molecule, the GI50 (XF498) was > 100 µM (inactive), the GI50 (LXFL 529) was > 100 µM (inactive) and the GI50 (TK-10) was > 100 µM (inactive). The GI50 (CCRF-CEM) was > 100 µM (inactive).
